Results as given in PMC10518257 (Nature Cancer, 2023).
“And” between values parts separate entries of the source, which are not always exact repeats. Identical values can stand only once. Like-named read-outs stand apart in the source and are kept apart here.

Assays:
[1] = Animal weight of tumor-bearing mice; settings: LUAD-0087AS2 PDX; Selpercatinib 30 mg/kg BID; treatment day 45; individual animals
[2] = Transcellular transport study, apparent permeability; settings: pig, LLC-PK1
[3] = tested on: LUAD-0086AS3 cells; assay: Growth inhibition (alamarBlue, 96 h); format: cell-based, human; settings: for raw viability signal (Source Data Fig. 3b-c): LUAD-0086AS3 (n=1, 3 replicates)
[4] = tested on: Ba/F3 cells; assay: Growth inhibition assay in Ba/F3 cells (CellTiter-Glo, 72 h); format: cell-based
[5] = tested on: Ba/F3 cells expressing KIF5B–RET^G810C; assay: as above; format: cell-based; settings: replicate Sets 1-3
[6] = tested on: Ba/F3 cells expressing KIF5B–RET^V804L; assay: as above; format: cell-based; settings: replicate sets
[7] = target: T1, panel of 255 (vepafestinib) or 256 (all other inhibitors) recombinant kinases (Homo sapiens, UniProt P35916); assay: Kinase selectivity profiling at a single concentration (Carna Biosciences); format: biochemical; settings: 22 nM
T1 construct: purchased Carna Biosciences
T1 sequence (P35916 25-1363): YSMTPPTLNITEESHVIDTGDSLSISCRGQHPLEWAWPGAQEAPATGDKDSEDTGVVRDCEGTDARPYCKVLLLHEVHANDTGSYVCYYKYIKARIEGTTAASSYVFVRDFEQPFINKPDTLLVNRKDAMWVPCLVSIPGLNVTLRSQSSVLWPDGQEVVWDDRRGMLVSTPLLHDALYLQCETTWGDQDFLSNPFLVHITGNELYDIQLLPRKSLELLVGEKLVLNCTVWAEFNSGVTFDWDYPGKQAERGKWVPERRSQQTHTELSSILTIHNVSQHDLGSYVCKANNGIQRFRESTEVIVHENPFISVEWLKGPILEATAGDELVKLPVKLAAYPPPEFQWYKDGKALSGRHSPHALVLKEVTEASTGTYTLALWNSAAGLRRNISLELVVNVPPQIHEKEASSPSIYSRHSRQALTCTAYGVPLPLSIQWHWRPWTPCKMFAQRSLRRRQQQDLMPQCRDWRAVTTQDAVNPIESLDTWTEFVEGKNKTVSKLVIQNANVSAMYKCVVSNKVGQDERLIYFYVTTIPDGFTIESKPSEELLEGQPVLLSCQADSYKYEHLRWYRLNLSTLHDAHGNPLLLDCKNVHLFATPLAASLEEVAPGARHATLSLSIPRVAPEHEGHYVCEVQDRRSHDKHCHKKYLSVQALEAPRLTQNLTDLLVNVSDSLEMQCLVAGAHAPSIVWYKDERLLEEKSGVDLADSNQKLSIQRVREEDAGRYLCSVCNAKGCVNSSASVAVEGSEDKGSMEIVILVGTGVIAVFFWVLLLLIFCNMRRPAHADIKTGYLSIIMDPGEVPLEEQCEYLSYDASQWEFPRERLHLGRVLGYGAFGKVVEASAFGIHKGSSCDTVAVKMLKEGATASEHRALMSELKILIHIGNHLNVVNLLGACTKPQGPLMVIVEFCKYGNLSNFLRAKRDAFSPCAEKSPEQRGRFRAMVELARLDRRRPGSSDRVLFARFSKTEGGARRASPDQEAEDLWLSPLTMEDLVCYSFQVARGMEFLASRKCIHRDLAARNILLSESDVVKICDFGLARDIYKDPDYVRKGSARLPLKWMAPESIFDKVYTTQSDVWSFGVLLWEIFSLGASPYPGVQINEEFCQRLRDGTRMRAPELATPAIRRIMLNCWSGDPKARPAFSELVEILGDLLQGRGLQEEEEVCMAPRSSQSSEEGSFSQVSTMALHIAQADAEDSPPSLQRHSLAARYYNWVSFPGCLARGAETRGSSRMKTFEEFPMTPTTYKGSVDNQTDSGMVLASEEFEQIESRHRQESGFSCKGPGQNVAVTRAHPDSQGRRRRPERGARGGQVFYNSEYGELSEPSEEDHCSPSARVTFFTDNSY

[8] = target: T2, panel of 255 (vepafestinib) or 256 (all other inhibitors) recombinant kinases (Homo sapiens, UniProt P16234); assay: as above; format: biochemical; settings: 22 nM
T2 construct: purchased Carna Biosciences
T2 sequence (P16234 24-1089): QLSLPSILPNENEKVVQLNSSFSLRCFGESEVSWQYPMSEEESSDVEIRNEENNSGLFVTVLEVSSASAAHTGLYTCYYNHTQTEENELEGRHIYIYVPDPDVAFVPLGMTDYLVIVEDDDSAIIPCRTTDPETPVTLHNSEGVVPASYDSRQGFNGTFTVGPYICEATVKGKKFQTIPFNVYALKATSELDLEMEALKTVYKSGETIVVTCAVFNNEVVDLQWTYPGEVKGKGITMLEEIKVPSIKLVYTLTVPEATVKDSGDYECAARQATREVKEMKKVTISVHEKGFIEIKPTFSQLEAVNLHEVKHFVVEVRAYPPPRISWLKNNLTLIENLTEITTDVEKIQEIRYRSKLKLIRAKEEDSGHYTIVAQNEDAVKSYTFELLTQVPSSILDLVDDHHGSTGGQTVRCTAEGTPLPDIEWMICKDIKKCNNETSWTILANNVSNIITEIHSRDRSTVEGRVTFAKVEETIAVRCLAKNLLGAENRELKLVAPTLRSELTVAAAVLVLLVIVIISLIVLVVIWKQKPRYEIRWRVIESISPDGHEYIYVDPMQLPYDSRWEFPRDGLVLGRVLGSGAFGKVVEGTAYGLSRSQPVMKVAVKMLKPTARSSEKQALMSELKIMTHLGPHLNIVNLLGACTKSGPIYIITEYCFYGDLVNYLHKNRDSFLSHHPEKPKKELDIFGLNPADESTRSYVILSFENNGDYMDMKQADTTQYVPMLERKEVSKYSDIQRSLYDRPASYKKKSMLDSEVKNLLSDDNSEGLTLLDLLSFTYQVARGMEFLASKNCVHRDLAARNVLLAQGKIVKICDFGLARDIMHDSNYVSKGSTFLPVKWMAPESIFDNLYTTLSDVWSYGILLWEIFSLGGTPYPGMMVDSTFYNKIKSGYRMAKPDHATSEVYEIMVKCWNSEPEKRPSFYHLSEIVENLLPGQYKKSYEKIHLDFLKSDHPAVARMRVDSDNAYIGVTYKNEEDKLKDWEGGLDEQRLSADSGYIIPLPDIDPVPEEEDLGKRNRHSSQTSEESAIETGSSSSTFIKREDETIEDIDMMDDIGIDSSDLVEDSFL

[9] = target: panel of 255 (vepafestinib) or 256 (all other inhibitors) recombinant kinases; assay: as above; format: biochemical; settings: 22 nM, 256 kinases
[10] = tested on: HBECp53-EV cells; assay: Growth inhibition (alamarBlue, 96 h); format: cell-based, human; settings: for raw viability signal (Source Data Fig. 3b-c): HBEC-EV, replicate sets
[11] = tested on: MMNK1 cholangiocytes; assay: Growth inhibition (alamarBlue, 96 h); format: cell-based, human; settings: for raw viability signal (Source Data Fig. 3b-c): MMNK, replicates
[12] = tested on: phosphorylation of RET^G810R, RET^G810S and RET^G810C in Ba/F3 cells; assay: Western blotting of RET phosphorylation in Ba/F3 KIF5B–RET cells; format: cell-based; settings: 1 h, western blot
[13] = tested on: Ba/F3 cells expressing KIF5B–RET^G810R; assay: Growth inhibition assay in Ba/F3 cells (CellTiter-Glo, 72 h); format: cell-based; settings: replicate Sets 1-3
[14] = tested on: LUAD-0087AS2 PDX; assay: PDX efficacy study; settings: for Tumor volume: LUAD-0087AS2, selpercatinib group 30 mg/kg BID, individual animals
[15] = tested on: Ba/F3 cells expressing KIF5B–RET^V804M; assay: Growth inhibition assay in Ba/F3 cells (CellTiter-Glo, 72 h); format: cell-based; settings: replicate sets
[16] = Homo sapiens, 96 h, read-out: IC50 for Inhibition of Growth (95% CI)

Compound: COc1ccc(CN2C3CC2CN(c2ccc(-c4cc(OCC(C)(C)O)cn5ncc(C#N)c45)cn2)C3)cn1 [Selpercatinib]
- Animal Weight [1]: 28 g (3×) and 27 g (2×)
- Papp at 3 h, 1 μM [2]: 17 ×10⁻⁶ cm/s
- IC50 [3, 16]: 84 nM
- raw viability signal (Source Data Fig. 3b-c) ([3]; 0.01 nM): 32605.6 and 32345.5 and 24840.6
- raw viability signal (Source Data Fig. 3b-c) ([3]; 0.1 nM): 24088.4 and 24382.4 and 28533.2
- raw viability signal (Source Data Fig. 3b-c) ([3]; 1 nM): 21980.7 and 23036.6 and 27631.4
- raw viability signal (Source Data Fig. 3b-c) ([3]; 10 nM): 22728.2 and 21261.8 and 26828.6
- raw viability signal (Source Data Fig. 3b-c) ([3]; 100 nM): 13108.2 and 14842.7 and 15753
- raw viability signal (Source Data Fig. 3b-c) ([3]; 1000 nM): 5050.52 and 4540.04 and 5107.48
- raw viability signal (Source Data Fig. 3b-c) ([3]; 10000 nM): 1139.12 and 1223.75 and 1244.48
- GI50 ([4]; Ba/F3 (parental), replicate Sets 1-3): 3870 nM and 3570 nM
- GI50 ([4]; Mus musculus, BaF3, 72 h, read-out: GI50 value (Mean ± SD), Ba/F3, CellTiter-Glo, 72 h): 3980 nM
- GI50 ([4]; Mus musculus, BaF3, Ba/F3 (parental), replicate Sets 1-3): 4490 nM
- GI50 ([5]; Ba/3-KIF5B-RET-G810C): 201 nM and 181 nM
- GI50 ([5]; Mus musculus, BaF3, Ba/3-KIF5B-RET-G810C): 233 nM
- GI50 ([6]; Ba/3-KIF5B-RET-V804L): 8.67 nM and 7.06 nM
- GI50 ([6]; Mus musculus, BaF3, Ba/3-KIF5B-RET-V804L): 5.67 nM
- % Inhibiton FLT4 [7]: 84.9%
- % Inhibiton PDGFRα [8]: 28.7%
- kinases inhibited by >50% [9]: three
- raw viability signal (Source Data Fig. 3b-c) ([10]; 0.01 nM): 19116.4 (2×) and 30437.1
- raw viability signal (Source Data Fig. 3b-c) ([10]; 0.1 nM): 18667.6 (2×) and 30340.4
- raw viability signal (Source Data Fig. 3b-c) ([10]; 1 nM): 19461.2 (2×) and 29511.3
- raw viability signal (Source Data Fig. 3b-c) ([10]; 10 nM): 19276.9 (2×) and 28618.6
- raw viability signal (Source Data Fig. 3b-c) ([10]; 100 nM): 19331.4 (2×) and 28192.3
- raw viability signal (Source Data Fig. 3b-c) ([10]; 1000 nM): 18208.7 (2×) and 25648.6
- raw viability signal (Source Data Fig. 3b-c) ([10]; 10000 nM): 8503.33
- IC50 [10, 16]: 11400 nM
- IC50 [11, 16]: 7930 nM
- raw viability signal (Source Data Fig. 3b-c) ([11]; 0.01 nM): 14041 and 14658.8
- raw viability signal (Source Data Fig. 3b-c) ([11]; 0.1 nM): 13930.7 and 15331
- raw viability signal (Source Data Fig. 3b-c) ([11]; 1 nM): 13461 and 14668.6
- raw viability signal (Source Data Fig. 3b-c) ([11]; 10 nM): 13703.4 and 14128
- raw viability signal (Source Data Fig. 3b-c) ([11]; 100 nM): 13905.3 and 14051.8
- raw viability signal (Source Data Fig. 3b-c) ([11]; 1000 nM): 12731.7 and 12599.2
- raw viability signal (Source Data Fig. 3b-c) ([11]; 10000 nM): 6976.41 and 6993.09
- block of phosphorylation of RET^G810R, RET^G810S or RET^G810C [12]: did not block
- GI50 ([13]; Ba/3-KIF5B-RET-G810R): 1070 nM and 1190 nM
- GI50 ([13]; Mus musculus, BaF3, Ba/3-KIF5B-RET-G810R): 800 nM
- Area Under Curve Mean ([14]; Fig. 6a LUAD-0087AS2 tumor growth, selpercatinib 30 mg/kg BID): -1216
- Tumor volume ([14]; treatment day 0): 118.47 (2×) and 116.65 and 114.49 (2×)
- Tumor volume ([14]; treatment day 3): 107.17 (3×) and 103.77 and 112.73
- Tumor volume ([14]; treatment day 7): 99.78 and 112.28 and 107.17 (2×) and 110.58
- Tumor volume ([14]; treatment day 10): 95.03 (4×) and 96.62
- Tumor volume ([14]; treatment day 14): 91.61 and 88.25 and 95.03 and 86.78 and 91.87
- Tumor volume ([14]; treatment day 17): 103.77 and 88.25 and 107.17 and 96.62 and 91.87
- Tumor volume ([14]; treatment day 21): 103.77 and 83.83 and 96.62 (2×) and 91.87
- Tumor volume ([14]; treatment day 24): 72.18 (2×) and 83.97 and 80.89 and 74.9
- Tumor volume ([14]; treatment day 29): 80.89 (2×) and 72.18 and 85.5 and 74.9
- Tumor volume ([14]; treatment day 32): 80.89 (3×) and 75.04 and 70.69
- Tumor volume ([14]; treatment day 35): 82.36 and 75.04 and 88.7 and 80.89 and 70.69
- Tumor volume ([14]; treatment day 38): 79.29 and 75.04 and 88.7 and 80.89 and 70.69
- Tumor volume ([14]; treatment day 42): 79.29 and 75.04 and 98.67 and 80.89 and 77.87
- Tumor volume ([14]; treatment day 45): 79.29 and 72.18 and 98.67 and 68.07 and 73.54
- GI50 ([15]; Ba/3-KIF5B-RET-V804M): 36.4 nM and 32.9 nM
- GI50 ([15]; Mus musculus, BaF3, Ba/3-KIF5B-RET-V804M): 30.6 nM
